According to ChEMBL document CHEMBL3639081, “Azabicyclo compound and salt thereof” (2014):

Molecular target: Heat shock protein HSP 90-alpha (Homo sapiens, UniProt P07900)
Assay: AlphaScreen Competitive Assay: The HSP90-binding activity was measured by an AlphaScreen competitive assay system. The purified HSP90 solution was diluted with a binding buffer (50 mM Tris-HCl (pH 7.5), 150 mM NaCl, 0.1% Triton-X100, 1 mM DTT, 0.1% BSA) and added to a 384-well plate (No. 3673, Corning Incorporated) containing test substances. After reaction at room temperature for 2 hr, biotin-labeled geldanamycin was added to each reaction solution in an amount of 40 nM, followed by reaction for further 1 hr. Detection mix (20 mM HEPES-KOH (pH 7.5), 0.5% BSA, 0.04 mg/mL Nickel Chelate Acceptor beads, 0.04 mg/mL Streptavidin-coated Donor beads) (No. 6760619C, Perkin Elmer, Inc.) was added to each well in the same amount as that of the reaction solution. After reaction in a dark place at room temperature for 1 hr, the fluorescence intensity in each well was measured with a multilabel plate reader, EnVision (Perkin Elmer, Inc.).

IC50: 90 nM
SMILES: COc1cc(C(N)=O)ccc1-n1nc(C(C)C)c2c(-n3cnc(-c4cnn(C)c4)c3)ccnc21
